According to patent publication US7264921B2, “No synthase assay particles and method” (GE Healthcare UK Limited, priority 2001, dated 2007):
Counter-ions that a name gives are not always drawn.

What was measured:
iNOS [1] = molecular target: T1, iNOS (Mus musculus, UniProt P29477); assay: iNOS SPA enzyme assay, effect of solvents; format: biochemical, murine; design: purchased Cayman Chemical Company 60864; details: for Time (mins) cpm, 0: 0 min; for Time (mins) cpm, 5: 5 min; for Time (mins) cpm, 10: 10 min; for Time (mins) cpm, 20: 20 min; for % change in ratio: versus water
Protocol: The effect of using different solvents to dissolve test inhibitor compounds was tested, using the assay conditions as described in Example 4 above. […] Appropriate ‘experimental controls’ should therefore be used in all experiments.

iNOS [2] = molecular target: T1, iNOS; assay: biochemical
Protocol: Reaction conditions and data measurement were as described in Example 3 above, using 10 μl of iNOS (Cayman Chemical Company, Catalogue Number 60864) enzyme equivalent to 0.038 units/well.
The assay conditions were as described in Example 4 above employing a range of inhibitor concentrations.

iNOS [3] = molecular target: T1, iNOS; assay: iNOS enzyme assay, competition experiment I (LEADseeker beads, 14C arginine); format: biochemical, murine; design: purchased Cayman Chemical Company 60864; details: from dose response curve FIG. 8; 1 hour room temperature; read-out: IC50 (50% inhibition of the enzyme)
Protocol: The preferential capture of arginine compared to citrulline can be utilised in a signal decrease assay. The assay is performed in a 3074 Costar 384 well plate Enzyme (iNOS murine macrophage, recombinant. Cayman catalogue no. 60864, 112 units/ml) is diluted 10 times in assay buffer (1.2 mM NADPH, 3.6 mM DTT, 4.8 uM FAD, 4.8 uM FMN, 4.8 uM biopterin in 50 mM TRIS pH 7.5. Diluted enzyme (10 μl) is incubated with 1.5 μl inhibitor/agonist dissolved in 100% DMSO along with 10 μl ^14C arginine tracer (APBiotech, CFB63, 300 mCi/mMol stock solution diluted in assay buffer to 100,000-150,000 cpm in 10 μl) for 1 hour at room temperature, protected from light. 10 μl LEADseeker beads suspended in a “stop” solution (360 μM aminoguanidine, 20 mM EDTA, pH 8) to 100 mg/ml (i.e 10 μl=1 mg/well) are added and the mixture incubated at room temperature for at least 2 hours. Control reactions were carried out by replacing the inhibitor with 1.5 μl water. The results are read by counting in LEADseeker™ (binning at 2×2, Q coincidence and imaged for 5 mins).
The baseline was determined using 1.5 μl 1 mM aminoguanidine (final concentration 70 μM) and maximum response using 1.5 μl 30 mM aminoguanidine (final concentration).

Row | Compound | Ratio Time 0/20 mins (iNOS [1]; 1% solvent) | Time (mins) cpm, 0 (iNOS [1]; 1% solvent) [cpm] | Time (mins) cpm, 5 (iNOS [1]; 1% solvent) [cpm] | Time (mins) cpm, 10 (iNOS [1]; 1% solvent) [cpm] | Time (mins) cpm, 20 (iNOS [1]; 1% solvent) [cpm] | % change in ratio (iNOS [1]; 1% solvent) [%] | Ratio Time 0/20 mins (iNOS [1]; 5% solvent) | Time (mins) cpm, 0 (iNOS [1]; 5% solvent) [cpm] | Time (mins) cpm, 5 (iNOS [1]; 5% solvent) [cpm] | Time (mins) cpm, 10 (iNOS [1]; 5% solvent) [cpm] | Time (mins) cpm, 20 (iNOS [1]; 5% solvent) [cpm] | % change in ratio (iNOS [1]; 5% solvent) [%] | Ratio Time 0/20 mins (iNOS [1]; 10% solvent) | Time (mins) cpm, 0 (iNOS [1]; 10% solvent) [cpm] | Time (mins) cpm, 5 (iNOS [1]; 10% solvent) [cpm] | Time (mins) cpm, 10 (iNOS [1]; 10% solvent) [cpm] | Time (mins) cpm, 20 (iNOS [1]; 10% solvent) [cpm] | % change in ratio (iNOS [1]; 10% solvent) [%] | IC50 (iNOS [2]) [µM] | IC50 (iNOS [3]) [µM]
1 | C[S+](C)[O-] [DMSO] | 6.39 | 10324 | 7128 | 4330 | 1615 | 10 | 5.12 | 8530 | 4166 | 4453 | 1665 | 28 | 3.10 | 6630 | 3884 | 3666 | 2138 | 56 | – | –
2 | CCSC(=N)N [SEITU, 2-ethyl-2-thiopseudourea hydrobromide] | – | – | – | – | – | – | – | – | – | – | – | – | – | – | – | – | – | – | 0.032 | –
3 | CC(C)=O [acetone] | 6.54 | 12884 | 8509 | 5169 | 1971 | 8 | 4.78 | 12431 | 8409 | 6708 | 2601 | 33 | 3.19 | 10201 | 6255 | 6464 | 3193 | 55 | – | –
4 | N=C(N)NN [aminoguanidine] | – | – | – | – | – | – | – | – | – | – | – | – | – | – | – | – | – | – | – | ~500
5 | CCO [ethanol] | 6.57 | 13409 | 9004 | 5580 | 2040 | 8 | 4.19 | 13248 | 7465 | 6596 | 3161 | 41 | 3.23 | 12008 | 6316 | 5987 | 3715 | 54 | – | –
6 | CO [methanol] | 7.56 | 14914 | 8639 | 4989 | 1973 | – | 7.13 | 15317 | 7939 | 5466 | 2147 | – | 6.32 | 12488 | 6631 | 4698 | 1975 | 10 | – | –
